Reference: patent US20220282304A1, “SAME-SAMPLE ANTIBIOTIC SUSCEPTIBILITY TEST AND RELATED COMPOSITIONS, METHODS AND SYSTEMS” (CALIFORNIA INSTITUTE OF TECHNOLOGY, priority 2021, published 2022)

System: Escherichia coli isolate
Assay: Same-sample AST, bulk: filtration, RT-ddPCR of 23S rRNA, percent extracellular (Example 1)
Assay type: cell-based
Details: 1.0 μg/mL ETP, 37° C. 60 minutes; lower bound of 95% Poisson CI of percent extracellular vs threshold (control mean + 2 SD); three replicates
Procedure: The inoculum was small enough that no detectable difference in the sample's optical density at 600 mm (OD600) was detectable by a spectrophotometer with a sensitivity of 0.01 absorbance units. After an incubation at 37° C., the media became turbid with an OD600 of 0.26 absorbance units after 2 hours of incubation thus providing a bacteria batch culture.
To begin the AST protocol, 10 μL of the above bacteria batch culture was added to and mixed with 15 μL of Mueller-Hinton Broth (MHB) growth media containing 1.67 μg/mL of dissolved ertapenem (ETP) antibiotic to create a test condition antibiotic exposure with a final ETP concentration of 1.0 μg/mL.
In parallel, 10 μL of the batch culture was added to and mixed with 15 μL of Mueller-Hinton Broth (MHB) growth media containing no ETP to create a control condition antibiotic exposure corresponding to the 1 μg/mL test condition. The two antibiotic exposures were incubated at 37° C. for 60 minutes.
The entire volume of each antibiotic exposure was transferred to an individual cellulose acetate filter with a 0.2 μm pore size. Fluid that passes through the filter, called the “filtrate”, was collected in a clean microcentrifuge tube. The antibiotic exposures were centrifuged at 2200 relative centrifugal force to speed the passage of the antibiotic exposure through the filter and into the collecting vessel. […]

Structure (SMILES): C[C@@H](O)[C@H]1C(=O)N2C(C(=O)O)=C(S[C@@H]3CN[C@H](C(=O)Nc4cccc(C(=O)O)c4)C3)[C@H](C)[C@H]12 [ETP, ertapenem]
- susceptibility call: susceptible
